In PubChem BioAssay (NCI):
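Briefly, cells in 96-well plates were exposed to five compound concentrations for 48 h, and endpoints were estimated by linear interpolation. GI50 is the concentration that inhibits growth by half. Definition used: TGI = concentration required for complete inhibition of growth.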

How the values were obtained:
Test in all cases: NCI tumour cell line growth inhibition, 48 h
HCT-116 colon = system: HCT-116 colon
HOP-62 NSCLC = system: HOP-62 NSCLC
KM12 colon = system: KM12 colon
MCF7 breast = system: MCF7 breast
PC-3 prostate = system: PC-3 prostate
SK-MEL-2 melanoma = system: SK-MEL-2 melanoma
SNB-75 CNS = system: SNB-75 CNS
TK-10 renal = system: TK-10 renal
U251 CNS = system: U251 CNS
UACC-62 melanoma = system: UACC-62 melanoma

| SMILES | GI50 (HCT-116 colon) | TGI (HCT-116 colon) | GI50 (HOP-62 NSCLC) | TGI (HOP-62 NSCLC) | GI50 (KM12 colon) | TGI (KM12 colon) | GI50 (MCF7 breast) | TGI (MCF7 breast) | GI50 (PC-3 prostate) | TGI (PC-3 prostate) | GI50 (SK-MEL-2 melanoma) | TGI (SK-MEL-2 melanoma) | GI50 (SNB-75 CNS) | TGI (SNB-75 CNS) | GI50 (TK-10 renal) | TGI (TK-10 renal) | GI50 (U251 CNS) | TGI (U251 CNS) | GI50 (UACC-62 melanoma) | TGI (UACC-62 melanoma) |
| --- | --- | --- | --- | --- | --- | --- | --- | --- | --- | --- | --- | --- | --- | --- | --- | --- | --- | --- | --- | --- |
| O=C(NCCc1ccccc1)Nc1ccc2cc3ccc(NC(=O)NCCc4ccccc4)cc3nc2c1 | 0.349 µM | 1.29 µM | 1.55 µM | 3.75 µM | 1.64 µM | 4.42 µM | 0.29 µM | 1.2 µM | 1.63 µM | 3.59 µM | 1.39 µM | 3 µM | 1.36 µM | 3.21 µM | 4.98 µM | 24.8 µM | 0.746 µM | 2.16 µM | 1.29 µM | 2.74 µM |
| COc1cc(-n2cc(-c3ccccc3)[nH]c2=O)cc(OC)c1OC | 58.1 µM | > 100 µM | 39.1 µM | > 100 µM | > 100 µM | > 100 µM | 44.9 µM | > 100 µM | 40 µM | > 100 µM | > 100 µM | > 100 µM | 13.9 µM | 34 µM | 39.6 µM | > 100 µM | 41.3 µM | > 100 µM | 36.9 µM | > 100 µM |
| O=C(Nc1cccc(-n2cc(-c3ccncc3)c(-c3ccc(O)c(Cl)c3)n2)c1)c1ccc2c(c1)OCCO2 | 5.44 µM | > 100 µM | > 100 µM | > 100 µM | 4.83 µM | > 100 µM | 4.24 µM | > 100 µM | 7.3 µM | > 100 µM | > 100 µM | > 100 µM | 4 µM | > 100 µM | > 100 µM | > 100 µM | 4.02 µM | > 100 µM | 7.96 µM | > 100 µM |
| OB(O)c1ccccc1C#Cc1ccccc1B(O)O | – | 58.4 µM | – | 83.9 µM | – | 49 µM | – | 31.3 µM | – | > 100 µM | – | 34.7 µM | – | > 100 µM | – | 53.2 µM | – | 78.3 µM | – | 30.8 µM |
| C/C=C/C/C=C/[C@H](C)C[C@H](O)[C@@H]1C[C@@H]2O[C@H]2/C=C/[C@@H]2OC(C)(C)O[C@H]2/C=C/C[C@H](C)CC(=O)O1 | 8.85 µM | > 100 µM | 15.1 µM | 90.2 µM | 7.85 µM | > 100 µM | 25.5 µM | > 100 µM | 5.75 µM | > 100 µM | 39.3 µM | > 100 µM | 24.6 µM | > 100 µM | 51.8 µM | > 100 µM | 13.5 µM | > 100 µM | 4.31 µM | 20.2 µM |
| COc1cccc(-c2nn(-c3ccccc3)cc2-c2ccnc(NCCCNC(=O)c3cccc(C(F)(F)F)c3)c2)c1 | 3.81 µM | 16.1 µM | 10.3 µM | 30.6 µM | 3.64 µM | 19.8 µM | 3.54 µM | 18.5 µM | 3.18 µM | 24 µM | 7.23 µM | 23.6 µM | 17 µM | 57.8 µM | 7.33 µM | 31.2 µM | 4.37 µM | 17.5 µM | 3.58 µM | 16.2 µM |
| Cc1ccc(Nc2cc(Cl)c([N+](=O)[O-])cc2[N+](=O)[O-])cc1 | 2.59 µM | 6.94 µM | 5.82 µM | 16.2 µM | 3.24 µM | 8.8 µM | 2.7 µM | 7.68 µM | 3.59 µM | 14.2 µM | 3.31 µM | 8.94 µM | 3.91 µM | 17.5 µM | 6.03 µM | 17.5 µM | 3.36 µM | 12.4 µM | 4.13 µM | 15.6 µM |
| c1ccc(CN2CCc3[nH]c4ccccc4c3C2)cc1 | – | 43.6 µM | – | > 73.5 µM | – | 45.9 µM | – | 31.9 µM | – | > 100 µM | – | 41.1 µM | – | > 100 µM | – | > 71 µM | – | 53.8 µM | – | 66.9 µM |
| C=CC(COC(=O)C(C)(C)OC(C)=O)c1ccc(OC(=O)C(C)C)c(OC)c1 (stereo not given) | – | > 48.9 µM | – | 23.5 µM | – | 15.5 µM | – | > 22.8 µM | – | 27 µM | – | 25.5 µM | – | 22.2 µM | – | 24.8 µM | – | 25.8 µM | – | 27.8 µM |
| Cc1ccc(S(=O)(=O)OCC#CCOS(=O)(=O)c2ccc(C)cc2)cc1 | 2.08 µM | 5.47 µM | 2.35 µM | 5.69 µM | 2.08 µM | 4.6 µM | 3.21 µM | 16.7 µM | 1.79 µM | 3.6 µM | 3.07 µM | 9.66 µM | 1.76 µM | 4.38 µM | 2.37 µM | 6.27 µM | 1.69 µM | 3.22 µM | 3.96 µM | 12.6 µM |
| CNC(=O)c1cc(Oc2cccc3nc(NC(=O)Nc4cc(C(F)(F)F)cc(C(F)(F)F)c4)ccc23)ccn1 | 13.8 µM | 41.8 µM | 3.37 µM | 10.4 µM | 15.2 µM | > 100 µM | 7.43 µM | 66.6 µM | 6.06 µM | 38.2 µM | 12.7 µM | 25.6 µM | 2.38 µM | 14.9 µM | 3.22 µM | 11.5 µM | 2.47 µM | 6.27 µM | 3.56 µM | 22.5 µM |
| C[N+](C)(C)CC1CCC(C[N+](C)(C)C)C1=O (stereo not given) | – | 3.44 µM | – | 36.1 µM | – | 16.3 µM | – | 6.05 µM | – | 31.3 µM | – | 36.9 µM | – | 3.51 µM | – | 6.39 µM | – | 17.1 µM | – | 17.9 µM |
| Cc1cc(-c2nnc(/C=C/c3ccc4c(c3)OCO4)o2)n[nH]1 | 11.9 µM | > 50 µM | 17.5 µM | > 50 µM | 2.15 µM | > 50 µM | 15.1 µM | > 50 µM | 7.87 µM | > 50 µM | 12.1 µM | > 50 µM | 9.02 µM | 36.2 µM | 22.3 µM | > 50 µM | 13.6 µM | > 50 µM | 15.3 µM | > 50 µM |
